Laboratory results published in publication PMC11873125 (Scientific Reports, 2025).
“Also recorded” adds a separate entry of the source.

Experiments:
[1] = tested on: LMNB1 in TRE-FLAG-LMNB1 MEF; assay: Primary HCS assay, LMNB1 intensity, dose-response; format: cell-based, mouse; settings: DOX medium, 48 h, ten-point dose-response
LMNB1 = settings: cited from earlier work
TRE-FLAG-LMNB1 MEF = assay: Primary HCS assay, cell numbers; format: cell-based, mouse; settings: 48 h
ADLD patient fibroblasts = assay: Antiproliferative activity and expanded toxicity measurements; format: cell-based, human; settings: high density, two-day exposure
LMNB in HL-60 cells = settings: cited from earlier work
[2] = tested on: LMNB1 in TRE-FLAG-LMNB1 MEF; assay: Western blot of LMNB1 in TRE-FLAG-LMNB1 MEF; format: cell-based, mouse; settings: 48 h, LMNB1/actin
[3] = tested on: LMNA/C in TRE-FLAG-LMNB1 MEF; assay: Primary HCS assay, LMNA/C intensity; format: cell-based, mouse; settings: 48 h
[4] = Solubility observation during SAR testing; format: physicochemical

**Q.** For `COc1ccc(C2CC(c3ccccc3Cl)Nc3nc(N)nn32)cc1OC` (stereo not shown) [CID 3154585], which “Effect on LMNB1 levels in dose-response (in words)” value (shortened to “Effect on LMNB1 levels”) [1] is on record?
**A.** limited response at the highest concentration tested

**Q.** What does the source list for `CO[C@H]1/C=C\C=C(/C)C(=O)NC2=CC(=O)C(NCCN(C)C)=C(C[C@@H](C)C[C@H](OC)[C@H](O)[C@@H](C)/C=C(\C)[C@@H]1OC(N)=O)C2=O` [alvespimycin]?
**A.** Effect on LMNB1 (in words) (LMNB1): reduced LMNB1; Cellular toxicity (in words) (TRE-FLAG-LMNB1 MEF): significant cellular toxicity

**Q.** Which “Effect on cell numbers, nuclear morphology and cell size (in words)” value (ADLD patient fibroblasts) does the source give for `CC[C@@]1(O)C(=O)OCc2c1cc1n(c2=O)Cc2cc3ccccc3nc2-1` [camptothecin, (S)-( +)-camptothecin] here?
**A.** reduced cell numbers and caused cells to enlarge

**Q.** And the “Effect on LMNB levels (in words)” value (LMNB in HL-60 cells)?
**A.** reduce LMNB levels in HL-60 cells

**Q.** And the “Effect on LMNB1 levels” value [1]?
**A.** dose-dependent decreases in LMNB1 levels

**Q.** What about the “Cellular toxicity (in words)” value (TRE-FLAG-LMNB1 MEF) of the same molecule?
**A.** cellular toxicity

**Q.** Which results are given for `Oc1c2ccccc2c2c3c(cccc13)N=N2` [SP600125]?
**A.** Confirmation of LMNB1 reduction by Western blot (in words) [2]: did not confirm; Effect on LMNA/C expression, selectivity (in words) [3]: selectively reduced LMNB1 over LMNA/C; Effect on LMNB1 levels in dose-response (in words) [1]: dose-dependent decreases in LMNB1 levels; also recorded: maximum response with SP600125 was small and the curve not sigmoidal; Cellular toxicity (in words) (TRE-FLAG-LMNB1 MEF): no or low toxicity

**Q.** For `COc1ccccc1NC(=S)N[C@@H](NC(=O)c1cccc(Br)c1)C(Cl)(Cl)Cl` [UPCMLDCBRC1049772], which “Effect on LMNB1 levels” value [1] is on record?
**A.** abolished activity

**Q.** For `CCOc1ccccc1C1CC(c2ccccc2)Nc2nc(N)nn21` (stereo not shown) [CID 3512343], which “Effect on LMNB1 levels” value [1] is on record?
**A.** retained some activity

**Q.** With `COc1cccc(C2CC(c3ccccc3Cl)Nc3ncnn32)c1` (stereo not shown) [CID 663139] as the molecule, how does the “Solubility (in words)” value [4] read?
**A.** caused solubility problems

**Q.** With `COc1ccc(C2CC(c3ccc(Cl)cc3Cl)Nc3nc(N)nn32)cc1OC` (stereo not shown) [CID 3154587] as the molecule, how does the “Effect on LMNB1 levels” value [1] read?
**A.** inactive

**Q.** For `Cc1c(CNC(=O)c2nn3c(c2Cl)N[C@@H](c2ccccc2)C[C@@H]3C(F)(F)F)cnn1C` [UPCMLDCBRC1040264], which “Effect on LMNB1 levels” value [1] is on record?
**A.** abolished activity

**Q.** With `CCOc1ccc(N([C@@H](C)C(=O)Nc2ccc(Br)c(C)c2)S(C)(=O)=O)cc1` [UPCMLDCBRC1002139] as the molecule, how does the “Effect on LMNB1 levels” value [1] read?
**A.** not tolerated

**Q.** Which “Effect on LMNB1 levels” value [1] does the source give for `O=C(NCc1ccco1)c1cc2nc(-c3ccc4c(c3)OCO4)cc(C(F)(F)F)n2n1` [MolPort-001–493–770] here?
**A.** very strong reduction of LMNB1, which was an artifact of image analysis

**Q.** Which results are given for `Oc1ccc(-c2nc(-c3ccncc3)c(-c3ccc(F)cc3)[nH]2)cc1` [SB202190]?
**A.** Confirmation of LMNB1 reduction by Western blot (in words) [2]: concentration-dependently reduced both human-FLAG-LMNB1 and endogenous mouse LMNB1; Effect on LMNA/C expression, selectivity (in words) [3]: selectively reduced LMNB1 over LMNA/C; Effect on LMNB1 levels in dose-response (in words) [1]: dose-dependent decreases in LMNB1 levels; Cellular toxicity (in words) (TRE-FLAG-LMNB1 MEF): no or low toxicity
